# Patent US12187727B2, “Methods for antagonizing a melanocortin 4 receptor” (Pfizer Inc., priority 2020, dated 2025)
# Where two headings read alike, the source gives them in different places.
# Experiments:
# [1] = target: human Melanocortin-4 receptor (MC4R) (Homo sapiens (Human), UniProt P32245); assay: Functional in vitro MC4R antagonist potency assay (cAMP HTRF in CHO cells); type: cell-based
# Outline: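 CHO cells stably expressing human MC4R were preincubated 30 min at 37 °C with compound ([…], 0.1% DMSO), then stimulated 30 min with EC80 αMSH (200 nM). Intracellular cAMP quantified by HTRF competitive immunoassay and normalized to agonist-stimulated and vehicle-only wells.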
# hMC4R = hMC4R (Homo sapiens (Human), UniProt P32245); assay: In vitro binding affinity assay using hMC4R (radioligand competition binding, [125I]-(Nle4, D-Phe7)-α-MSH); settings: geometric mean
# Chain of hMC4R (P32245 whole entry): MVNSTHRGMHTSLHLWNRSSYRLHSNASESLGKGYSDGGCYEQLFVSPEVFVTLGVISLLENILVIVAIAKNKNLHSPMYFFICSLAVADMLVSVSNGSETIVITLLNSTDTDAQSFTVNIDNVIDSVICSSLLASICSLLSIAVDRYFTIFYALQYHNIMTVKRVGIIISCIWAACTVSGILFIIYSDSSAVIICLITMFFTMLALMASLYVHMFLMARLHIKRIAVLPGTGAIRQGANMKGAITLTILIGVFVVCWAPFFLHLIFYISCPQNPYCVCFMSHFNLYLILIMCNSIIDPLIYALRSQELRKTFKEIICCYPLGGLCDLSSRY
# Procedure: Example AA. In Vitro Binding Affinity Assay Using hMC4R
# The binding affinity of test compounds at the […] (hMC4R) was assessed using a radioligand competition binding assay. […] Cell membranes were bulked and frozen until the assay was performed.
# Compounds were solubilized in 100% dimethyl sulfoxide (DMSO) to a concentration of 30 mM. A 10-point intermediate dilution series using half log dilutions was created in 100% DMSO with a top concentration of 0.03 mM. […] The final compound range in the assay was 300 nM to 0.01 nM with a final DMSO concentration of 1%. […] The exact concentration of radioligand used for each experiment was determined by liquid scintillation counting and adjusted if necessary.
# Frozen hMC4R cell membranes were thawed and Dounce homogenized. Homogenates were resuspended in assay buffer to a concentration of 2 μg per well. […] The plates were incubated for 2 hours at room temperature.
# The raw data (expressed as counts per minute) were analyzed using ActivityBase (IDBS Data Management Software). […] Equilibrium dissociation constant for inhibitor of ligand and receptor interaction (Ki) values were then calculated from the IC50 values using the Cheng-Prusoff equation: Ki=IC50/(1+([L]/Kd)), where [L] is the concentration of the radioligand used in the experiment and Kd is the affinity of the radioligand (determined in separate saturation experiments).
# [2] = human MC4R in CHO cells, cAMP HTRF, 200 nM aMSH challenge, Kb from IC50 by Leff-Dougall equation, geometric mean, read-out: Kb (nM) Antagonist geometric
# [3] = read-out: Kb (nM) Antagonist geometric mean
# [4] = read-out: Ki (nM) geometric mean
# Chain of human Melanocortin-4 receptor (MC4R) (P32245 whole entry): as above
Structure (SMILES),"Kb [1, 2] [nM]",Ki (hMC4R; read-out: Ki (nM) geometric) [nM],"Kb [1, 3] [nM]",Ki (hMC4R; [4]) [nM]
"COc1cc([C@@H](C)C(=O)N2CC[C@@]3(CCc4cc(-c5ncccn5)c(C)nc4N3)C2)c(C)cn1 (single isomer, unassigned) [Example 137]",19,59,–,–
"COc1nccc([C@@H](C)C(=O)N2CC[C@@]3(CCc4cc(-c5ncccn5)c(C)nc4N3)C2)c1F (single isomer, unassigned) [Example 57]",–,–,12,2.5
"COc1cc([C@@H](C)C(=O)N2CCC3(CCc4cc(-c5nnn(C)n5)c(C)nc4N3)C2)c(Cl)cn1 (single isomer, unassigned) [Example 2]",–,–,1.2,4.5
"COc1cc([C@@H](C)C(=O)N2CC[C@@]3(CCc4cc(-c5ncccn5)c(C)nc4N3)C2)c(C(F)(F)F)cn1 (single isomer, unassigned) [Example 41]",–,–,0.12,0.53
"COc1cc([C@@H](C)C(=O)N2CC[C@@]3(CCc4cc(-c5nc6ccccn6n5)c(C)nc4N3)C2)c(F)cn1 [Example 111, (2R)-2-(5-fluoro-2-methoxypyridin-4-yl)-1-[(2S)-7-methyl-6-([1,2,4]triazolo[1,5-a]pyridin-2-yl)-3,4-dihydro-1H-spiro[1,8-naphthyridine-2,3′-pyrrolidin]-1′-yl]propan-1-one]",0.47,0.25,–,–
"COc1cc([C@@H](C)C(=O)N2CC[C@@]3(CCc4cc(-c5ncccn5)c(C)nc4N3)C2)c(C(F)F)cn1 (single isomer, unassigned) [Example 36]",–,–,0.19,0.52
"Cc1nc2c(cc1-c1ncccn1)CC[C@@]1(CCN(C(=O)[C@H](C)c3cc(C(F)(F)F)ncc3Cl)C1)N2 (single isomer, unassigned) [Example 39]",–,–,23,4.9
"COc1cc([C@@H](C)C(=O)N2CC[C@@]3(CCc4cc(-c5nc(OC)n(C)n5)c(C)nc4N3)C2)c(F)cn1 (single isomer, unassigned) [Example 113]",8,17,–,–
"COc1ncc(F)c([C@@H](C)C(=O)N2CC[C@@]3(CCc4cc(-c5nnn(C)n5)c(C)nc4N3)C2)n1 (single isomer, unassigned) [Example 135]",10,3.8,–,–
"COc1cc([C@@H](C)C(=O)N2CCC3(CCc4cc(-c5nc(OC)n(C)n5)c(C)nc4N3)C2)c(Cl)cn1 (single isomer, unassigned) [Example 115]",3.5,31,–,–
"COc1cc([C@@H](C)C(=O)N2CC[C@@]3(CCc4cc(-c5nc6ccccn6n5)c(C)nc4N3)C2)nc(C(F)F)n1 (single isomer, unassigned) [Example 129]",1.5,0.44,–,–
"Cc1nc2c(cc1-c1ncccn1)CC[C@@]1(CCN(C(=O)[C@H](C)c3ccc(OC(F)(F)F)cc3)C1)N2 (single isomer, unassigned) [Example 49]",–,–,> 95,64
"COc1cc([C@@H](C)C(=O)N2CC[C@@]3(CCc4cc(Cl)c(C)nc4N3)C2)c(F)cn1 (single isomer, unassigned) [Example 103]",–,> 250,–,–
"Cc1ccc2c(n1)NC1(CCN(C(=O)Cc3ccc(F)cc3)C1)CC2C (single isomer, unassigned) [Example 11, 1-(4,7-dimethyl-3,4-dihydro-1H-spiro[1,8-naphthyridine-2,3′-pyrrolidin]-1′-yl)-2-(4-fluorophenyl)ethan-1-one]",–,–,–,> 2200
"COc1nccc([C@@H](C)C(=O)N2CC[C@@]3(CCc4cc(-c5ncccn5)c(C)nc4N3)C2)c1F (single isomer, unassigned) [Example 58]",–,–,> 62,190
"Cc1nc2c(cc1-c1ncccn1)CC[C@@]1(CCN(C(=O)[C@H](C)c3ccc(F)c(F)c3)C1)N2 (single isomer, unassigned) [Example 51]",–,–,> 110,120
"COc1cc(OC)cc([C@@H](C)C(=O)N2CC[C@@]3(CCc4ccc(C)nc4N3)C2)c1 (single isomer, unassigned) [Example 96]",–,–,11,4.1
"COc1cc(OC)cc([C@@H](C)C(=O)N2CC[C@@]3(CCc4ccc(C)nc4N3)C2)c1 (single isomer, unassigned) [Example 97]",–,–,–,100
"COc1cc([C@@H](C)C(=O)N2CCC3(CCc4cc(-c5cnn(C)c5)c(C)nc4N3)C2)c(F)cn1 (single isomer, unassigned) [Example 17]",–,–,> 64,69

Structure (SMILES),"Kb [1, 2] [nM]",Ki (hMC4R; read-out: Ki (nM) geometric) [nM],"Kb [1, 3] [nM]",Ki (hMC4R; [4]) [nM]
"COc1cc([C@@H](C)C(=O)N2CC[C@@]3(CCc4cc(-c5cncc(OC)n5)c(C)nc4N3)C2)c(F)cn1 [Example 197, (2R)-2-(5-fluoro-2-methoxypyridin-4-yl)-1-[(2S)-6-(6-methoxypyrazin-2-yl)-7-methyl-3,4-dihydro-1H-spiro[1,8-naphthyridine-2,3′-pyrrolidin]-1′-yl]propan-1-one]",33,18,–,–
"COc1ncc(Cl)c([C@@H](C)C(=O)N2CC[C@@]3(CCc4cc(-c5ncccn5)c(C)nc4N3)C2)n1 (single isomer, unassigned) [Example 85]",–,–,–,> 250
"COc1cc([C@@H](C)C(=O)N2CC[C@@]3(CCc4cc(-c5nnn(C)n5)c(C)nc4N3)C2)ccn1 (single isomer, unassigned) [Example 126]",–,140,–,–
"Cc1ccc2c(n1)NC1(CCN(C(=O)Cc3ccc(F)cc3)C1)CC2C (single isomer, unassigned) [Example 9, 1-(4,7-dimethyl-3,4-dihydro-1H-spiro[1,8-naphthyridine-2,3′-pyrrolidin]-1′-yl)-2-(4-fluorophenyl)ethan-1-one]",–,–,–,380
"Cc1nc2c(cc1-c1ncccn1)CC[C@@]1(CCN(C(=O)[C@H](C)c3cc(C(F)(F)F)ncc3Cl)C1)N2 (single isomer, unassigned) [Example 38]",–,–,–,> 200
"Cc1nc2c(cc1-c1ncccn1)CC[C@@]1(CCN(C(=O)[C@H](C)c3cc(C(F)(F)F)ncc3F)C1)N2 (single isomer, unassigned) [Example 79]",–,–,–,> 250
"Cc1ccc2c(n1)NC1(CCN(C(=O)Cc3ccc(F)cc3)C1)CC2C (single isomer, unassigned) [Example 10, 1-(4,7-dimethyl-3,4-dihydro-1H-spiro[1,8-naphthyridine-2,3′-pyrrolidin]-1′-yl)-2-(4-fluorophenyl)ethan-1-one]",–,–,–,440
"COc1cc([C@@H](C)C(=O)N2CC[C@@]3(CCc4ccc(C)nc4N3)C2)c(F)cn1 (single isomer, unassigned) [Example 99]",–,–,–,81
"Cc1nc2c(cc1-c1cnn(C)c1)CCC1(CCN(C(=O)Cc3ccc(F)cc3)C1)N2 (single isomer, unassigned) [Example 19, 2-(4-fluorophenyl)-1-[7-methyl-6-(1-methyl-1H-pyrazol-4-yl)-3,4-dihydro-1H-spiro[1,8-naphthyridine-2,3′-pyrrolidin]-1′-yl]ethan-1-one]",–,–,–,> 220
"Cc1nc2c(cc1-c1ncccn1)CC[C@@]1(CCN(C(=O)[C@H](C)c3cc(N(C)C)ncc3F)C1)N2 (single isomer, unassigned) [Example 82]",–,–,–,120
"COc1ncc(F)c([C@@H](C)C(=O)N2CC[C@@]3(CCc4cc(-c5nc6ccccn6n5)c(C)nc4N3)C2)n1 (single isomer, unassigned) [Example 133]",–,63,–,–
"COc1cc([C@](C)(F)C(=O)N2CC[C@@]3(CCc4cc(-c5ncccn5)c(C)nc4N3)C2)ccn1 (single isomer, unassigned) [Example 47]",–,–,–,20
"COc1cc([C@@H](C)C(=O)N2CC[C@@]3(CCc4cc(-c5ncccn5)c(C)nc4N3)C2)c(C(F)F)cn1 (single isomer, unassigned) [Example 37]",–,–,–,180
"Cc1nc2c(cc1-c1ncccn1)CC[C@@]1(CCN(C(=O)C(C)c3cc(OC(F)(F)F)ncc3Cl)C1)N2 (single isomer, unassigned) [Example 63]",–,–,–,94
"Cc1nc2c(cc1-c1ncccn1)CC[C@@]1(CCN(C(=O)C(C)c3ccc(OC(F)F)nc3)C1)N2 (single isomer, unassigned) [Example 5]",–,–,–,> 200
"COc1cc(OC(F)F)cc([C@@H](C)C(=O)N2CC[C@@]3(CCc4cc(-c5ncccn5)c(C)nc4N3)C2)c1 (single isomer, unassigned) [Example 61]",–,–,–,40
"COc1ncc(Cl)c([C@@H](C)C(=O)N2CC[C@@]3(CCc4cc(-c5ncccn5)c(C)nc4N3)C2)n1 (single isomer, unassigned) [Example 86]",–,–,–,2.3
"COc1ccc([C@@H](C)C(=O)N2CC[C@@]3(CCc4cc(-c5ncccn5)c(C)nc4N3)C2)cc1F (single isomer, unassigned) [Example 43]",–,–,–,43
"COc1cc([C@@H](C)C(=O)N2CC[C@@]3(CCc4cc(-c5nc(N(C)C)cc(C(F)(F)F)n5)c(C)nc4N3)C2)c(F)cn1 [Example 185, (2R)-1-{(2S)-6-[4-(dimethylamino)-6-(trifluoromethyl)pyrimidin-2-yl]-7-methyl-3,4-dihydro-1H-spiro[1,8-naphthyridine-2,3′-pyrrolidin]-1′-yl}-2-(5-fluoro-2-methoxypyridin-4-yl)propan-1-one]",–,5.5,–,–
